The values below come from paper PMC9950949 (iScience, 2023).

In the assay the target is NLRP3 (Homo sapiens, UniProt Q96P20). Nature of the assay: microscale thermophoresis. Format: binding.
NLRP3, sequence (Q96P20 whole entry): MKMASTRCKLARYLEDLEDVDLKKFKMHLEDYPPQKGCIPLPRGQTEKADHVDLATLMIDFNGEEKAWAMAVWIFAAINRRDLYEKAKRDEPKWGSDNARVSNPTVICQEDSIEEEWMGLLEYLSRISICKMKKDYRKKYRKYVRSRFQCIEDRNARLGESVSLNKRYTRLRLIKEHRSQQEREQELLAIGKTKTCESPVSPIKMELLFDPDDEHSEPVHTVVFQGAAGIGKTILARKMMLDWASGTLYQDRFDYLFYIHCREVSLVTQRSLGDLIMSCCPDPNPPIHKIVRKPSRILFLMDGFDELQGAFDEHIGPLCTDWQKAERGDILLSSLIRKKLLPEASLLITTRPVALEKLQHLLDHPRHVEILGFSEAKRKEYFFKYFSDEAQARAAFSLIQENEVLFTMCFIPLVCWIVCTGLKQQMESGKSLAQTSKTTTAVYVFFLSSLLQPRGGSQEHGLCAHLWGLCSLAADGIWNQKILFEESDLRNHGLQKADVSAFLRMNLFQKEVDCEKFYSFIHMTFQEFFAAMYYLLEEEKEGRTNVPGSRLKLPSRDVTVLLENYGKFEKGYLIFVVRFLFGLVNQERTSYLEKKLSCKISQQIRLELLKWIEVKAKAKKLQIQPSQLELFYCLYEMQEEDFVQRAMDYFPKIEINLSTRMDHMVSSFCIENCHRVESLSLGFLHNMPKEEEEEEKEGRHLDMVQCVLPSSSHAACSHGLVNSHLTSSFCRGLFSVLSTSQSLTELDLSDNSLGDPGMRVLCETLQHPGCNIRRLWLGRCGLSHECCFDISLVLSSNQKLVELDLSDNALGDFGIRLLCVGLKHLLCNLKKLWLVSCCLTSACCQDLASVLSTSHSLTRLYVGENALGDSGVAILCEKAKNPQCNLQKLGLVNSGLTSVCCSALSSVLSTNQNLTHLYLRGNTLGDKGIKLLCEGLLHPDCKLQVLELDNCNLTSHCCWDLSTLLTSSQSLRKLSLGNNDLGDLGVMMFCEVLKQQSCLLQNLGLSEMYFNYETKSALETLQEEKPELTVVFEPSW

As for `O=C1NC(=O)[C@@H](c2cn3c4c(cccc24)CCC3)[C@@H]1c1c[nH]c2ccccc12` [Tivantinib], the equilibrium dissociation constant (Kd) was around 373 nM.

What is called Kd is the equilibrium constant for the complex coming apart.
